ChEMBL document CHEMBL5370643, “Discovery of MK-1468: A Potent, Kinome-Selective, Brain-Penetrant Amidoisoquinoline LRRK2 Inhibitor for the Potential Treatment of Parkinson's Disease” (J Med Chem, 2023)

Columns and labels:
Conditions in all cases: in vivo
[1] = AUC (0 to 24 hrs) in Wistar-Han rat at 48 mg administered twice a day by LC-MS/MS analysis; type: ADME; set-up: dose 48 mg
[2] = AUC in rhesus monkey at 800 mg/kg, po administered once daily for 7 days; type: ADME, organism-based, Macaca mulatta; set-up: time 7 day, dose 800 mg/kg, route po
[3] = Total clearance in Wistar-Han rat at 3 mg/kg, iv measured after 24 hrs by LC-MS/MS analysis; type: ADME, organism-based
[4] = Intrinsic clearance in rhesus monkey at 3 mg/kg, iv measured after 24 hrs by LC-MS/MS analysis; type: ADME, organism-based, Macaca mulatta

Question: What does the source list for `C[C@@]1(N2CCN(c3cc4cc(NC(=O)[C@H]5CC56CCOCC6)ncc4cc3Cl)CC2)COC[C@@H]1O`?
Answer: AUC [1]: 6 µM·h; AUC at 168 h [2]: 63 µM·h; clearance [3]: 56 mL/min/kg; CL [4]: 736 mL/min/kg
